Target: T1, NLRP3 (Homo sapiens, UniProt Q96P20)
T1 construct: host or cells: THP-1 cells differentiated with PMA
Experiment: IL-1β Secretion Assay (NLRP3-dependent IL1β secretion in THP1 cells)
Assay type: cell-based
Settings: PMA-differentiated THP-1 cells; compounds incubated 20 h; 2.5 μM Nigericin 3 h; HTRF IL-1β readout; read-out: IC50 IL-1β Inhibition
Outline: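 THP-1 cells differentiated with 100 ng/mL PMA for 24 h, then given compound (7-point 3-fold series, 1:200 from DMSO) for 20 h in RPMI+5% FBS. NLRP3 activated with 2.5 μM nigericin for 3 h; secreted IL-1β measured by HTRF; IC50 from logistic fit of % inhibition.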

T1 sequence (Q96P20 whole entry): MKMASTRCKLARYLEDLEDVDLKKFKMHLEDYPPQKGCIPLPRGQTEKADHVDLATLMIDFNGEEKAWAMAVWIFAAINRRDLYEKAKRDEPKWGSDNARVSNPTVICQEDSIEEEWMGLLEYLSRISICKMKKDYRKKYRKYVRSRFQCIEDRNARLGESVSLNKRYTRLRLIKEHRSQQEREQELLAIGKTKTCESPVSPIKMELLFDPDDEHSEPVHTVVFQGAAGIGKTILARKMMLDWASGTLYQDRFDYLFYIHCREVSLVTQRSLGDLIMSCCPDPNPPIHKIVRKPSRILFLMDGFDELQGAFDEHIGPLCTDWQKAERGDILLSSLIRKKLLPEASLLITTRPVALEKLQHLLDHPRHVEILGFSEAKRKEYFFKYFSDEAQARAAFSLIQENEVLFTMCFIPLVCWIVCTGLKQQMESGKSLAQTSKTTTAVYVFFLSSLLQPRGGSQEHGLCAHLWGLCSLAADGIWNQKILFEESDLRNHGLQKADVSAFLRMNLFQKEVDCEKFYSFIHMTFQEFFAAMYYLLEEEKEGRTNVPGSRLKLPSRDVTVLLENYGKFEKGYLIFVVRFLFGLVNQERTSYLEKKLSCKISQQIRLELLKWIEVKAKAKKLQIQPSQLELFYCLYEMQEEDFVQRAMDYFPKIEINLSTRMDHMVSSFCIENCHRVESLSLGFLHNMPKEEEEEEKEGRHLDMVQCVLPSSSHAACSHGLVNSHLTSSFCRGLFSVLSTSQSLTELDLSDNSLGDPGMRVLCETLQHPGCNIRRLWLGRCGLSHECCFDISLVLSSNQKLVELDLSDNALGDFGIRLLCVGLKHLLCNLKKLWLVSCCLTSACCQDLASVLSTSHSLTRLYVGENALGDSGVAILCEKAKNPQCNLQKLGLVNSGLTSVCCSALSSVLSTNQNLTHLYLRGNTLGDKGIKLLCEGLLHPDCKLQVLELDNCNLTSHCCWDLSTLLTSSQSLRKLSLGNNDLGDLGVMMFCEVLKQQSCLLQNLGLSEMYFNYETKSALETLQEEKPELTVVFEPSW

SMILES | IC50 [nM]
CN1CCC[C@@H](Nc2nnc(-c3ccc(C(F)(F)F)cc3CC(F)(F)F)c3cncn23)C1 [Compound 2, N-[(3R)-1-methylpiperidin-3-yl]-1-[2-(2,2,2-trifluoroethyl)-4-(trifluoromethyl)phenyl]imidazo[1,5-d][1,2,4]triazin-4-amine] | < 1
OCCN1CCC[C@@H](Nc2nnc(-c3ccc(C(F)(F)F)cc3C(F)(F)F)c3c(F)ccn23)C1 [Compound 30, 2-[(3R)-3-({1-[2,4-bis(trifluoromethyl)phenyl]-8-fluoropyrrolo[1,2-d][1,2,4]triazin-4-yl}amino)piperidin-1-yl]ethan-1-ol] | 1 to 10
CN1CCC[C@@H](Nc2nnc(-c3ccc(C(F)(F)F)cc3C(F)(F)F)c3c(F)ccn23)C1 [Compound 28, 1-[2,4-bis(trifluoromethyl)phenyl]-8-fluoro-N-[(3R)-1-methylpiperidin-3-yl]pyrrolo[1,2-d][1,2,4]triazin-4-amine] | 1 to 10
COc1ccc(-c2nnc(N[C@H]3CCCC[C@@H]3O)n3cc(C)cc23)c(OC(F)(F)F)c1 [Compound 133, (1S,2S)-2-({1-[4-methoxy-2-(trifluoromethoxy)phenyl]-7-methylpyrrolo[1,2-d][1,2,4]triazin-4-yl}amino)cyclohexan-1-ol] | 10 to 100
C[C@@H](Nc1nnc(-c2ccc(C(F)(F)F)cc2OC(F)F)c2cccn12)c1cccc(O)c1 (single isomer, unassigned) [Compound 102] | 1 to 10
COc1ccc(-c2nnc(NC34CC(CO)(C3)C4)n3cccc23)c(OC(F)(F)F)c1 [Compound 94, [3-({1-[4-methoxy-2-(trifluoromethoxy)phenyl]pyrrolo[1,2-d][1,2,4]triazin-4-yl}amino)bicyclo[1.1.1]pentan-1-yl]methanol] | 10 to 100
COc1cccc(C(C)Nc2nnc(-c3ccc(OC)cc3C(F)(F)F)c3c(F)ccn23)c1 (stereo not drawn) [Compound 148, 8-fluoro-N-[1-(3-methoxyphenyl)ethyl]-1-[4-methoxy-2-(trifluoromethyl)phenyl]pyrrolo[1,2-d][1,2,4]triazin-4-amine] | 100 to 300
COc1ccc(-c2nnc(N[C@H]3C[C@@](C)(O)C3)n3ccc(F)c23)c(OC(F)(F)F)c1 [Compound 54, (1s,3s)-3-({8-fluoro-1-[4-methoxy-2-(trifluoromethoxy)phenyl]pyrrolo[1,2-d][1,2,4]triazin-4-yl}amino)-1-methylcyclobutan-1-ol] | 10 to 100
O[C@@H]1CCCC[C@H]1Nc1nnc(-c2ccc(C(F)(F)F)cc2OC(F)(F)F)c2cccn12 [Compound 151, (1R,2R)-2-({1-[2-(trifluoromethoxy)-4-(trifluoromethyl)phenyl]pyrrolo[1,2-d][1,2,4]triazin-4-yl}amino)cyclohexan-1-ol] | 1 to 10
FC(F)(F)Cc1cc(C(F)(F)F)ccc1-c1nnc(Nc2cc[nH]n2)n2cccc12 [Compound 97, N-(1H-pyrazol-3-yl)-1-[2-(2,2,2-trifluoroethyl)-4-(trifluoromethyl)phenyl]pyrrolo[1,2-d][1,2,4]triazin-4-amine] | 10 to 100
COc1cc(C)c(-c2nnc(N[C@@H]3CCCN(C)C3)n3cccc23)c(F)c1 [Compound 118, 1-(2-fluoro-4-methoxy-6-methylphenyl)-N-[(3R)-1-methylpiperidin-3-yl]pyrrolo[1,2-d][1,2,4]triazin-4-amine] | < 1
Cc1cc2c(-c3ccc(Cl)cc3C(F)F)nnc(N[C@@H]3CCCN(C)C3)n2c1 [Compound 11, 1-[4-chloro-2-(difluoromethyl)phenyl]-7-methyl-N-[(3R)-1-methylpiperidin-3-yl]pyrrolo[1,2-d][1,2,4]triazin-4-amine] | 10 to 100
Cc1ccc(-c2nnc(N[C@@H]3CCCN(CCO)C3)n3cncc23)c(OC(F)F)c1 [Compound 184, 2-[(3R)-3-({1-[2-(difluoromethoxy)-4-methylphenyl]imidazo[1,5-d][1,2,4]triazin-4-yl}amino)piperidin-1-yl]ethan-1-ol] | 1 to 10
COc1ccc(-c2nnc(N[C@@H]3CCCC[C@H]3O)n3cccc23)c(CC(F)(F)F)c1 [Compound 138, (1R,2R)-2-({1-[4-methoxy-2-(2,2,2-trifluoroethyl)phenyl]pyrrolo[1,2-d][1,2,4]triazin-4-yl}amino)cyclohexan-1-ol] | 1 to 10
C[C@H](Nc1nnc(-c2ccc(C(F)(F)F)cc2OC(F)F)c2cccn12)c1cccc(O)c1 (single isomer, unassigned) [Compound 103] | 10 to 100
Cc1cc2c(-c3ccc(C(F)(F)F)cc3C(F)(F)F)nnc(NC3CCNC3=O)n2c1 (stereo not drawn) [Compound 161, 3-({1-[2,4-bis(trifluoromethyl)phenyl]-7-methylpyrrolo[1,2-d][1,2,4]triazin-4-yl}amino)pyrrolidin-2-one] | 1 to 10
O[C@H]1CCCC[C@@H]1Nc1nnc(-c2ccc(C(F)(F)F)cc2OC(F)F)c2cccn12 [Compound 78, (1S,2S)-2-({1-[2-(difluoromethoxy)-4-(trifluoromethyl)phenyl]pyrrolo[1,2-d][1,2,4]triazin-4-yl}amino)cyclohexan-1-ol] | 10 to 100

Second part, the molecule after the results:

IC50 [nM] | SMILES
1 to 10 | O[C@@H]1COCC[C@H]1Nc1nnc(-c2ccc(C(F)(F)F)cc2CC(F)(F)F)c2cncn12 [Compound 313, (3S,4R)-4-({1-[2-(2,2,2-trifluoroethyl)-4-(trifluoromethyl)phenyl]imidazo[1,5-d][1,2,4]triazin-4-yl}amino)oxan-3-ol]
10 to 100 | COc1ccc(-c2nnc(NC3CCNC3=O)n3nc(C)cc23)c(CC(F)(F)F)c1 (stereo not drawn) [Compound 386, 3-({4-[4-methoxy-2-(2,2,2-trifluoroethyl)phenyl]-2-methylpyrazolo[1,5-d][1,2,4]triazin-7-yl}amino)pyrrolidin-2-one]
1 to 10 | CCN1CCC[C@@H](Nc2nnc(-c3ccc(OC)cc3Cl)c3cc(C)nn23)C1 [Compound 374, 4-(2-chloro-4-methoxyphenyl)-N-[(3R)-1-ethylpiperidin-3-yl]-2-methylpyrazolo[1,5-d][1,2,4]triazin-7-amine]
1 to 10 | Cc1ccc(-c2nnc(N[C@@H]3CCCN(C)C3)n3cncc23)c(CC(F)(F)F)c1 [Compound 317, N-[(3R)-1-methylpiperidin-3-yl]-1-[4-methyl-2-(2,2,2-trifluoroethyl)phenyl]imidazo[1,5-d][1,2,4]triazin-4-amine]
< 1 | C[C@]1(O)C[C@@H](Nc2nnc(-c3ccc(C(F)(F)F)cc3OC(F)(F)F)c3cncn23)C1 [Compound 241, (1s,3s)-1-methyl-3-({1-[2-(trifluoromethoxy)-4-(trifluoromethyl)phenyl]imidazo[1,5-d][1,2,4]triazin-4-yl}amino)cyclobutan-1-ol]
1 to 10 | C[C@]1(O)C[C@@H](Nc2nnc(-c3ccc(Cl)cc3OC(F)(F)F)c3cncn23)C1 [Compound 299, (1s,3s)-3-({1-[4-chloro-2-(trifluoromethoxy)phenyl]imidazo[1,5-d][1,2,4]triazin-4-yl}amino)-1-methylcyclobutan-1-ol]
≥ 300 | COc1ccc(-c2nnc(NC(C)c3ccccc3)n3cncc23)c(OC(F)(F)F)c1 (stereo not drawn) [Compound 231, 1-[4-methoxy-2-(trifluoromethoxy)phenyl]-N-(1-phenylethyl)imidazo[1,5-d][1,2,4]triazin-4-amine]
10 to 100 | O=C1NCCC1Nc1nnc(-c2ccc(C(F)(F)F)cc2OC(F)(F)F)c2ccnn12 (stereo not drawn) [Compound 393, 3-({4-[2-(trifluoromethoxy)-4-(trifluoromethyl)phenyl]pyrazolo[1,5-d][1,2,4]triazin-7-yl}amino)pyrrolidin-2-one]
1 to 10 | COc1ccc(-c2nnc(N[C@@H]3CCCC[C@H]3O)n3nc(C)cc23)c(CC(F)(F)F)c1 [Compound 385, (1R,2R)-2-({4-[4-methoxy-2-(2,2,2-trifluoroethyl)phenyl]-2-methylpyrazolo[1,5-d][1,2,4]triazin-7-yl}amino)cyclohexan-1-ol]
< 1 | O[C@@H]1CCCC[C@H]1Nc1nnc(-c2ccc(OC(F)F)cc2OC(F)(F)F)c2cncn12 [Compound 246, (1R,2R)-2-({1-[4-(difluoromethoxy)-2-(trifluoromethoxy)phenyl]imidazo[1,5-d][1,2,4]triazin-4-yl}amino)cyclohexan-1-ol]
10 to 100 | O[C@@H]1COCC[C@H]1Nc1nnc(-c2ccc(C(F)(F)F)cc2C2CC2)c2cncn12 [Compound 334, (3S,4R)-4-({1-[2-cyclopropyl-4-(trifluoromethyl)phenyl]imidazo[1,5-d][1,2,4]triazin-4-yl}amino)oxan-3-ol]
1 to 10 | C[C@]1(CO)C[C@@H](Nc2nnc(-c3ccc(C(F)(F)F)cc3OC(F)(F)F)c3cncn23)C1 [Compound 340, [(1s,3s)-1-methyl-3-({1-[2-(trifluoromethoxy)-4-(trifluoromethyl)phenyl]imidazo[1,5-d][1,2,4]triazin-4-yl}amino)cyclobutyl]methanol]
1 to 10 | Cc1cc2c(-c3ccc(C4CC4)cc3C(F)F)nnc(N[C@@H]3CCCN(C)C3)n2n1 [Compound 363, 4-[4-cyclopropyl-2-(difluoromethyl)phenyl]-2-methyl-N-[(3R)-1-methylpiperidin-3-yl]pyrazolo[1,5-d][1,2,4]triazin-7-amine]
10 to 100 | COc1ccc(-c2nnc(N[C@@H]3CCC[C@H]3O)n3cncc23)c(OC(F)(F)F)c1 [Compound 221, (1R,2R)-2-({1-[4-methoxy-2-(trifluoromethoxy)phenyl]imidazo[1,5-d][1,2,4]triazin-4-yl}amino)cyclopentan-1-ol]
1 to 10 | O[C@@H]1CCCC[C@H]1Nc1nnc(-c2ccc(C(F)(F)F)cc2C(F)(F)F)c2ccnn12 [Compound 394, (1R,2R)-2-({4-[2,4-bis(trifluoromethyl)phenyl]pyrazolo[1,5-d][1,2,4]triazin-7-yl}amino)cyclohexan-1-ol]
100 to 300 | COc1ccc(-c2nnc(Nc3cc[nH]n3)n3cncc23)c(OC(F)(F)F)c1 [Compound 220, 1-[4-methoxy-2-(trifluoromethoxy)phenyl]-N-(1H-pyrazol-3-yl)imidazo[1,5-d][1,2,4]triazin-4-amine]

Source: patent US20250179078A1, “INHIBITORS OF NLRP3” (PTC THERAPEUTICS, INC., priority 2022, published 2025)
